Reference: publication PMC7822874, “Chemoprotective antimalarials identified through quantitative high-throughput screening of Plasmodium blood and liver stage parasites” (Scientific Reports, 2021)
Like-named read-outs stand apart in the source and are kept apart here.

Assays:
[1] = system: P. berghei-ANKA-GFP-LucCON liver stage parasites in HepG2-A16-CD81EGFP cells; assay: P. berghei liver stage Pb-Luc assay, Method 1 (UCSD, 1536-well); format: cell-based, Plasmodium berghei; conditions: Plasmodium berghei, 48 h, average of 2 wells, 1536-well plate; for activity at 1 µM: nominal 1 uM (10 mM stock), […] for 15 mM, 1.2 uM for 12 mM, 2 uM for 20 mM stock; for activity at 3 µM: nominal 3 uM (10 mM stock), 4.5 uM for 15 mM, 3.6 uM for 12 mM, 6 uM for 20 mM stock
[2] = system: Plasmodium falciparum Dd2 asexual blood stage parasites; assay: microbe, parasite or virus in culture; parameters: species or system Plasmodium falciparum Dd2 in human erythrocytes; single determination (one 11-point concentration-response curve); conditions: Plasmodium falciparum, DD2, Erythrocyte, 72 h; read-out: AC50
[3] = system: HepG2-A16-CD81EGFP cells
[4] = in vitro; conditions: human
[5] = repeat 1, read-out: Pb-Luc signal, 1 uM, repeat 1
[6] = repeat 2, read-out: Pb-Luc signal, 1 uM, repeat 2
[7] = repeat 3, read-out: Pb-Luc signal, 1 uM, repeat 3
[8] = repeat 1, read-out: Pb-Luc signal, 3 uM, repeat 1
[9] = repeat 2, read-out: Pb-Luc signal, 3 uM, repeat 2
[10] = repeat 3, read-out: Pb-Luc signal, 3 uM, repeat 3
[11] = nominal 1 uM (10 mM stock), […] for 15 mM, 1.2 uM for 12 mM, 2 uM for 20 mM stock, average of 2 wells, repeat 2
[12] = nominal 3 uM (10 mM stock), 4.5 uM for 15 mM, 3.6 uM for 12 mM, 6 uM for 20 mM stock, average of 2 wells, repeat 2
[13] = HepG2-A16-CD81EGFP cells, uninfected

| SMILES | activity at 1 µM [1, 5] [%] | activity at 1 µM [1, 6] [%] | activity at 1 µM [1, 7] [%] | activity at 3 µM [1, 8] [%] | activity at 3 µM [1, 9] [%] | activity at 3 µM [1, 10] [%] | AC50 [2] [nM] | HepG2 viability signal, 1 uM, repeat 2 [3, 11] [%] | HepG2 viability signal, 3 uM, repeat 2 [3, 12] [%] | viability at 48 h, 1 µM [4, 13] [%] | viability at 48 h, 3 µM [4, 13] [%] | HepG2 viability signal, 1 uM, repeat 2 ([3]; human, 48 h, 1 µM) [%] | HepG2 viability signal, 3 uM, repeat 2 ([3]; human, 48 h, 3 µM) [%] | viability at 48 h, 1 µM [4] [%] | viability at 48 h, 3 µM [4] [%] |
| --- | --- | --- | --- | --- | --- | --- | --- | --- | --- | --- | --- | --- | --- | --- | --- |
| COc1ccc(-c2cc(=O)oc3c4c(ccc23)OCN(Cc2ccccc2)C4)cc1 [NCGC00116344-01] | 71.5 | 126 | 103 | 62.6 | 101 | 76.9 | 2990 | 95.59 | 97.26 | 98.2 | 101 |  |  |  |  |
| COc1cc(C(=O)NC2CCCc3c2[nH]c2c(Cl)cccc32)cc(OC)c1OC (centres unmarked) [NCGC00424034-01] | 122 | 161 | 165 | 157 | 165 | 156 | 2110 | 98.86 | 98.35 | 101 | 98.2 |  |  |  |  |
| COc1ccc(-c2noc(-c3cccn3CC(=O)Nc3ccccc3)n2)cc1F [NCGC00445500-01] | 155 | 167 | 187 | 187 | 192 | 169 | 2370 | 98.82 | 102.85 | 103 | 105 |  |  |  |  |
| O=C(Nc1ccc2c(N3CCCC3)ncnc2c1)c1cccc(F)c1 [NCGC00425501-01] | 97.2 | 101 | 106 | 56.8 | 72.2 | 29.3 | 4730 | 97.92 | 95.12 | 98.5 | 94.4 |  |  |  |  |
| COc1ccccc1NC(=O)N1CCOc2ccc(CN3CCc4ccccc4C3)cc2C1 [NCGC00471234-01] | 118 | 82 | 108 | 110 | 87.1 | 47 | 2370 | 96.28 | 96.50 | 98 | 96.8 |  |  |  |  |
| CCN1CCN(C(=O)c2ccc3c(c2)N(Cc2ccccc2F)C(=O)c2ccccc2[S+]3[O-])CC1 (centres unmarked) [NCGC00109528-01] | 102 | 105 | 110 | 94.3 | 116 | 97.6 | 841 | 95.20 | 97.54 | 101 | 98.8 |  |  |  |  |
| Cc1ccc(C)c(Cn2c(=O)n(CCCCC(=O)NCc3ccc4c(c3)OCO4)c(=O)c3ccccc32)c1 [NCGC00106276-01] | 69 | 120 | 109 | 132 | 95.7 | 87.2 | 6680 | 102.61 | 103.78 | 99.1 | 93.3 |  |  |  |  |
| CC1=C(C(=O)Nc2ccc(C)cc2C)C(c2ccc([N+](=O)[O-])cc2)n2ncc(C(=O)Nc3ccc(F)cc3)c2N1 (centres unmarked) [NCGC00126356-01] | 110 | 107 | 122 | 80.3 | 94 | 83.4 | 2990 | 98.93 | 92.77 | 98.5 | 94.6 |  |  |  |  |
| CC1CCCN(Cc2c(O)ccc3c(=O)c(-c4ccccc4Cl)c(C(F)(F)F)oc23)C1 (centres unmarked) [NCGC00100585-01] | 99.2 | 115 | 106 | 62.6 | 101 | 122 | 841 | 105.16 | 104.39 | 108 | 112 |  |  |  |  |
| COc1ccc(-c2cc([C@H]3CN4CC[C@H]3C[C@@H]4CN[S+](=O)([O-])c3ccc(Cl)cc3)n(C)n2)cc1OC [NCGC00399828-01] | 68.5 | 88.1 | 52.2 | 40.7 | 77 | 89.6 | 2990 |  |  |  |  | 102.24 | 102.23 | 98.9 | 99.9 |
| CCCOC(=O)c1c(NC(=O)C(C)Sc2nc(-c3ccccc3)cc(C(F)(F)F)n2)sc(C(=O)N(C)C)c1C (centres unmarked) [NCGC00101274-01] | 94.7 | 104 | 101 | 61.7 | 98.3 | 113 | 1680 | 104.19 | 103.13 | 98.8 | 100 |  |  |  |  |
| CCC(CC)c1cc([C@H]2CN3CC[C@H]2C[C@@H]3CN[S+](=O)([O-])c2ccccc2C#N)nc(-c2ccncc2)n1 [NCGC00421343-01] | 72 | 78.5 | 103 | 49 | 52 | 66.9 | 1500 |  |  |  |  | 105.19 | 104.55 | 110 | 110 |
| CC1=C(C(=O)Nc2ccc(C)cc2C)C(c2cc(Br)ccc2F)n2ncc(C(=O)Nc3ccc(C)cc3)c2N1 (centres unmarked) [NCGC00126328-01] | 99.2 | 113 | 121 | 61.3 | 103 | 73.4 | 1500 | 98.10 | 99.55 | 100 | 107 |  |  |  |  |
